Results taken from patent publication US9017938B2, “Use of microrna-199b-5p in medical and diagnostic field” (Advanced Accelerator Applications, priority 2009, dated 2015).

Columns and labels:
[1] = system: Daoy cell side population; assay: Side population FACS (Hoechst 33342 exclusion); assay type: cell-based, human
Procedure: The flow cytometry analysis of S-phase fractions and cell-cycle kinetics were carried out using a FACSCalibur (Becton Dickinson, San Jose, Calif.) using CELL Quest version 3.3 software. The CD133 studies were carried out using the same instrument, with antibodies from Miltenyi Biotec (Auburn, Calif.), according to the manufacturer instructions. In brief, the cells were blocked in Fc receptor blocking reagent and incubated with an anti-CD133/1 (AC133)-phycoerythrin antibody (Miltenyi Biotec), for 10 min in the dark at 4° C. The cells were then washed and resuspended in PBS. Cells expressing higher levels of CD133 than the immunoglobulin G (IgG) controls were considered positive. For analyses of the side populations, cells […] were incubated with Hoechst 33342 (5 μmol/L; Sigma) for 90 min at 37° C. in EMEM containing 2% FBS. To ensure the correct identification of the side population cells, the cells were incubated as above with the addition of 50 μM verapamil (Sigma).

[2] = system: Daoy cells; assay: Proliferation assay MTS, Daoy; assay type: cell-based, human; conditions: stable 199bMC1 and 199bSC1 clones vs empty-vector clone
Procedure: (§1) Cell proliferation was determined using the CellTiter96 AQueous Non-Radioactive Cell Proliferation Assay Kit (Promega Madison, Wis.). The cells were seeded into 96-well plates at a density of 1×10^3 cells/well in EMEM without or with FBS. After 0, 24, 48 and 72 h, MTS ([3-(4,5-dimethylthiazol-2-yl)-5-(3-carboxymethoxyphenyl)-2-(4-sulfophenyl)-2H-tetrazolium]) and PMS (phenazine methosulfate) were added to each well and after 4 h the absorbance of each well was measured at 490 nm (OD490) using Multilabel counter Victor^3 (Perkin Elmer). Each condition was performed with five wells and each experiment was repeated twice.
Proliferation assay (MTS) was made by kit CellTiter96 AQueous Non-Radioactive Cell Proliferation Assay (Promega) for 72 h. The cell lines daoy, MDA-231T and 4t1 treated with the control SNALP and with the miR 199b-5p were transferred in 96 multiwell at the concentration of 1000 and 3000 cells (daoy, MDA-231T and 4t1, respectively) in 100 μl of complete medium. For each experimental point were done 5 replicates. After 24, 48 e 72 h in each well was added 20 μl of 5× solution. After 4 h was read the absorbance of the formazane at 490 nm by Multilabel counter Victor3 (Perkin Elmer).

[3] = system: Daoy cells; assay: Soft-agar colony formation assay; assay type: cell-based, human; conditions: stable 199bSC1 clone vs empty-vector clone
Procedure: Daoy cells and the stable 199b clone were seeded in 1 ml EMEM supplemented with 2% FBS, containing 0.3% agarose. Cultures were maintained for two weeks and refreshed with EMEM supplemented with 2% FBS twice per week. Colonies of more than 100 μm in diameter were counted under a Leica (Nussloch, Germany) DC500 compound microscope.

[4] = system: HES1; assay: Western blotting of HES1 protein; assay type: cell-based, human
Procedure: (§2) Thirty μg cytosolic or nuclear lysates were loaded onto 12% polyacrilamide gels, and blotted onto polyvinylidene difluoride membranes (PVDF; BioRad, Milan, Italy). The membranes were then incubated with anti-HES1 (kind gift of Dr. Tetsuo Sudo TORAY Industries, Tebiro Kamakura, Japan), a polyclonal rabbit antibody (1:500), an anti-GSK3-β (B&D Bioscience) monoclonal antibody (1:2500), an anti-c-Myc polyclonal rabbit antibody (1:200) (Santa Cruz Biotechnology, Santa Cruz, Calif., USA), an anti-GABRA6 antibody (Santa Cruz Biotechnology, Santa Cruz, USA) (1:200), an anti-MATH3 antibody (Santa Cruz Biotechnology, Santa Cruz, USA) (1:200) and an anti-cyclin D1 (1:200) polyclonal rabbit antibody (Cell Signaling). An anti-β-actin antibody (1:1.000) (Sigma) was used as the control for equal loading of cytosolic lysates and a polyclonal anti-β-laminin antibody (1:50) (Santa Cruz Biotechnology, Santa Cruz, Calif., USA) for equal loading of nuclear lysates.

[5] = system: GSK3-β; assay: Western blotting of GSK3-β; assay type: cell-based, human; conditions: stable 199bSC1 clone
Procedure: as §2

[6] = system: NHLH2 3′UTR; assay: Luciferase reporter assay, full-length 3′UTR; assay type: cell-based; conditions: miR-199b-5p over-expression in Daoy cells
Procedure: (§3) To determine the activity of miR-199b-5p on repression of the luciferase-3′UTR fused constructs, the pREYZO-miR-199b-5p construct and the pRL-CMV-3′UTR target construct were co-transfected into HEK293 cells at a ratio of 10:1, using the Polyfect reagent (Qiagen) together with the pGL3 basic vector, in the absence and presence of 2-OM (400 nM). Luciferase activities were analysed using a Dual Luciferase Reporter Assay system (Promega, Madison, Wis.).

[7] = system: Nanog 3′UTR; assay: Luciferase reporter assay, full-length 3′UTR; assay type: cell-based; conditions: miR-199b-5p over-expression in Daoy cells
Procedure: as §3

[8] = system: cyclin L1 3′UTR; assay: Luciferase reporter assay, full-length 3′UTR; assay type: cell-based; conditions: miR-199b-5p over-expression in Daoy cells
Procedure: as §3

[9] = system: ONS76 cells; assay: Proliferation assay MTS, ONS76; assay type: cell-based; conditions: transient transfection vs mock-transfected cells
Procedure: as §1

[10] = system: Daoy cells; assay: s.c. flank xenograft with bioluminescence imaging; assay type: in vivo, athymic nude/nude mice
Procedure: Stable Daoy cell clones were generated by transfecting a luciferase-expressing vector (the firefly luciferase gene cloned in the plentiV5 vector; Invitrogen) into the stable 199bSC1 clone or into the control empty-vector clone. Then 100,000 viable 199b-Luc1 and Ctl-Luc-4 cells were mixed with a 1:1 PBS:matrigel solution (BD Biosciences, San Jose, Calif.). Six-week-old female athymic mice were anesthetised using avertin (Sigma) as a 3% solution in tert-amyl alcohol (Fisher), at a dose of 3 mg per 10 g body weight. The mice were injected s.c. with a total volume of 0.1 mL of matrigel PBS cell suspension, into each flank. The mice were imaged after the implantation of the cells, with tumor growth monitored by weekly bioluminescence acquisitions (BLI) using an MS 3D Illumina Imaging System (Xenogen Corp. Alameda, Calif.). For the acquisitions, the mice were […] with 100 μL D-luciferin (15 mg/mL stock) per 10 g body weight, and imaged for 30 s, 10 min after luciferin injection; four acquisitions per mouse were made (ventral, dorsal and each flank). To quantify the bioluminescence, the integrated fluxes of photons (photons per s) within each area of interest were determined using the Living Images Software Package 3.0 (Xenogen-Caliper). The emission data from the start of tumor growth were collected for at least 6 weeks, and then were normalized to the bioluminescence on the injection day. Calliper measurements of tumor sizes were made weekly, along the long and short axes, and estimations of their volumes were made using the formula: width2×length×0.52.

## miR-199b-5p: mature microRNA CCCAGUGUUUAGACUAUCUGUUC (SEQ ID NO:11); over-expressed from pre-miR-199b construct, e.g. stable Daoy clones 199bSC1, 199bMC1 (listed as RNA, chemistry not fully specified)
[1]; stable 199bMC1 clone (Daoy cells 5.2%)
  fraction of SP cells: 0.4%
[1]; stable 199bSC1 clone (Daoy cells 5.2%)
  fraction of SP cells: 0.2%
[2]
  proliferation rate: markedly reduced proliferation rates
[3]
  reduction in colony formation potential: 80%
[4]; D283 cells, transient transfection vs empty vector
  endogenous HES1 protein level: lowered the levels of the endogenous HES1 protein
[4]; HEK293 cells, transient transfection, 48 h
  endogenous HES1 protein level: lowered the levels of the endogenous HES1 protein
[4]; stable Daoy clone 199bSC1
  HES1 protein level: no detectable HES1
[4]; three stable Daoy clones over-expressing miR-199b-5p
  HES1 protein level: reduced HES1 protein levels
[5]
  GSK3-β protein levels: did not show any significant reductions
[6]
  down-regulation of reporter carrying NHLH2 3′UTR: did not detect any down-regulatory effects
[7]
  down-regulation of reporter carrying Nanog 3′UTR: did not detect any down-regulatory effects
[8]
  down-regulation of reporter carrying cyclin L1 3′UTR: did not detect any down-regulatory effects
[9]
  proliferation: decreased proliferation
[10]; 199b-Luc1 vs Ctl-Luc-4 Daoy clones
  tumor volumes, control flanks vs miR-199b-5p flanks: significant difference in tumor volumes
[10]; after nine weeks
  mice with statistically significant difference in bioluminescence signal between control and miR-199b-5p sides: four out of the five
[10]; s.c. injection of Daoy cells over-expressing miR-199b-5p, nine weeks (control cells 5/5)
  tumors detectable macroscopically: 3/5
